Our source for the EC50 values is patent publication US10654834B2 (Venenum Biodesign, LLC, priority 2016, dated 2020).

Where only a bound is given, the exact number is not on record here.

One assay has as its system Mouse STC-1 cells. Put plainly: STC-1 GLP-1 assay (GLP-1 secretion). The format is cell-based. As to conditions: Mouse STC-1 cells, GLP-1 secretion, 2 h; read-out: Mouse STC-1 HTRF GLP-1 Activity (EC50). In outline:
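Mouse STC-1 cells were plated two days ahead in DMEM with 10% charcoal-dextran stripped FBS, then exposed to compound in HBSS with protease inhibitors, DPP-IV inhibitor and 0.1% fatty acid free BSA for 2 h at 37° C. Active GLP-1 in supernatant was quantified by HTRF; EC50 derived from 12-point half-log curves.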

The next assay concerns the target T1, mouse TGR5 receptor (Mus musculus, UniProt Q80SS6).
T1 construct: host or cells: HEK293-EBNA (293 c18, ATCC CRL10852)
T1 sequence (Q80SS6 1-329): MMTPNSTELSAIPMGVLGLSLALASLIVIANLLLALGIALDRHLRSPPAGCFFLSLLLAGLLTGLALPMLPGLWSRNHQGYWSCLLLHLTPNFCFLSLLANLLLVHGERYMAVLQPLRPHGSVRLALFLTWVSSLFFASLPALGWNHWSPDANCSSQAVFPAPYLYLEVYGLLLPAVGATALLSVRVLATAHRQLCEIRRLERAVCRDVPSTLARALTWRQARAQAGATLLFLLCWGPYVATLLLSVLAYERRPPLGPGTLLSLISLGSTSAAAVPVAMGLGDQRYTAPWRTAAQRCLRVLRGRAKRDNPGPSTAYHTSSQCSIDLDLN
Kind of assay: Mouse TGR5 HTRF cAMP production assay (HEK293-EBNA cells, Cisbio cAMP HiRange kit). The format is cell-based. Particulars: HEK293-EBNA cells overexpressing mouse TGR5, HTRF cAMP assay. In outline:
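HEK293-EBNA cells stably expressing mouse TGR5 (episomal vector) were suspended in serum-free DMEM with 500 μM IBMX and exposed to 12-point half-log compound dilutions for 1 h at room temperature. cAMP was detected by HTRF (d2-cAMP/anti-cAMP cryptate, 1 h, room temperature), giving EC50 from duplicates.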

Turning to `N#Cc1ccc(CCNC(=O)[C@@H]2CCN2c2cc(N3CCC(CCCC(=O)NC[C@@H](O)CO)CC3)nc(C(F)(F)F)n2)cc1` [Compound 261, (S)-N-(4-cyanophenethyl)-1-(6-(4-(4-(((R)-2,3-dihydroxypropyl)amino)-4-oxobutyl)piperidin-1-yl)-2-(trifluoromethyl)pyrimidin-4-yl)azetidine-2-carboxamide], the half-maximal effective concentration (EC50) in the assay with Mouse STC-1 cells was 0.1 to 0.999 µM; at mouse TGR5 receptor it was less than 0.1 µM.

Consider `N#Cc1ccc(CCNC(=O)[C@@H]2CCCN2c2cc(N3CCC(CCCC(=O)NCCNC(=N)N)CC3)nc(C(F)(F)F)n2)cc1` [Compound 128, (S)-N-(4-cyanophenethyl)-1-(6-(4-(4-((2-guanidinoethyl)amino)-4-oxobutyl)piperidin-1-yl)-2-(trifluoromethyl)pyrimidin-4-yl)pyrrolidine-2-carboxamide], for which the EC50 in the assay with Mouse STC-1 cells was 0.1 to 0.999 µM; at mouse TGR5 receptor it was less than 0.1 µM.

Consider `N#Cc1ccc(CCNC(=O)[C@@H]2CCN2c2cc(N3CCC(CCNC(=O)NCCOCCNC(=N)N)CC3)nc(C(F)(F)F)n2)cc1` [Compound 287, (S)-1-(6-(4-(1-amino-1-imino-9-oxo-5-oxa-2,8,10-triazadodecan-12-yl)piperidin-1-yl)-2-(trifluoromethyl)pyrimidin-4-yl)-N-(4-cyanophenethyl)azetidine-2-carboxamid], for which the EC50 with Mouse STC-1 cells and at mouse TGR5 receptor was less than 0.1 µM throughout.

For the compound `N#Cc1ccc(CCNC(=O)[C@@H]2CCN2c2cc(N3CCC(CCNC(=O)NCCOCCNC(=O)NCCS(=O)(=O)O)CC3)nc(C(F)(F)F)n2)cc1` [Compound 358, (S)-15-(1-(6-(2-((4-cyanophenethyl)carbamoyl)azetidin-1-yl)-2-(trifluoromethyl)pyrimidin-4-yl)piperidin-4-yl)-4,12-dioxo-8-oxa-3,5,11,13-tetraazapentadecane-1-sulfonic acid], the concentration for a half-maximal effect (EC50) with Mouse STC-1 cells and on mouse TGR5 receptor was less than 0.1 µM each time.

In the case of `COc1cc(C(F)(F)F)ccc1CCNC(=O)[C@@H]1CCN1c1cc(N2CCC(CCC(=O)O)CC2)nc(C(F)(F)F)n1` [Compound 239, (S)-3-(1-(6-(2-((2-methoxy-4-(trifluoromethyl)phenethyl)carbamoyl)azetidin-1-yl)-2-(trifluoromethyl)pyrimidin-4-yl)piperidin-4-yl)propanoic acid], the EC50 in the assay on Mouse STC-1 cells and on mouse TGR5 receptor was less than 0.1 µM in each case.

Turning to `N#Cc1ccc(CCNC(=O)[C@@H]2CCN2c2cc(N3CCC(CCCC(=O)NCCS(=O)(=O)O)CC3)nc(C(F)(F)F)n2)cc1` [Compound 249, (S)-2-(4-(1-(6-(2-((4-cyanophenethyl)carbamoyl)azetidin-1-yl)-2-(trifluoromethyl)pyrimidin-4-yl)piperidin-4-yl)butanamido)ethanesulfonic acid], the EC50 in the assay with Mouse STC-1 cells and on mouse TGR5 receptor was less than 0.1 µM each time.

Consider `NS(=O)(=O)CCNC(=O)CCCC1CCN(c2cc(N3CCC[C@H]3C(=O)NCCc3ccc(C(F)(F)F)cc3)nc(C(F)(F)F)n2)CC1` [Compound 59, (S)-1-(6-(4-(4-oxo-4-((2-sulfamoylethyl)amino)butyl)piperidin-1-yl)-2-(trifluoromethyl)pyrimidin-4-yl)-N-(4-(trifluoromethyl)phenethyl)-pyrrolidine-2-carboxamide], for which the EC50 with Mouse STC-1 cells and at mouse TGR5 receptor was less than 0.1 µM in each case.

Turning to `N#Cc1ccc(CCNC(=O)[C@@H]2CCN2c2cc(N3CCC(CCCC(=O)NCCOCCNC(=N)N)CC3)nc(C(F)(F)F)n2)cc1` [Compound 284, (S)-N-(4-cyanophenethyl)-1-(6-(4-(4-((2-(2-guanidinoethoxy)-ethyl)amino)-4-oxobutyl)piperidin-1-yl)-2-(trifluoromethyl)pyrimidin-4-yl)azetidine-2-carboxamide], the EC50 with Mouse STC-1 cells was 0.1 to 0.999 µM; on mouse TGR5 receptor, less than 0.1 µM.

As for `N#Cc1ccc(CCNC(=O)[C@@H]2CCCN2c2cc(N3CCC(CCCC(=O)NCCCS(=O)(=O)O)CC3)nc(C(F)(F)F)n2)cc1` [Compound 63, (S)-3-(4-(1-(6-(2-((4-cyanophenethyl)carbamoyl)pyrrolidin-1-yl)-2-(trifluoromethyl)pyrimidin-4-yl)-piperidin-4-yl)butanamido)propane-1-sulfonic acid], the EC50 in the assay with Mouse STC-1 cells and at mouse TGR5 receptor was less than 0.1 µM in each case.

As to `COc1cc(C(F)(F)F)ccc1CCNC(=O)[C@@H]1CCCN1c1cc(N2CCC(CCCC(=O)O)CC2)nc(C(F)(F)F)n1` [Compound 34], the EC50 in the assay on Mouse STC-1 cells and on mouse TGR5 receptor was less than 0.1 µM in each case.

As to `COc1cc(C(F)(F)F)ccc1CCNC(=O)[C@@H]1CCN1c1cc(N2CCC(CCC(=O)NCCS(=O)(=O)O)CC2)nc(C(F)(F)F)n1` [Compound 259], the EC50 was 0.1 to 0.999 µM in the assay on Mouse STC-1 cells and less than 0.1 µM on mouse TGR5 receptor.

For the compound `N#Cc1ccc(CCNC(=O)[C@@H]2CCN2c2cc(N3CCC(CCNC(=O)NCCOCCNC(=O)NCCC(=O)O)CC3)nc(C(F)(F)F)n2)cc1` [Compound 360, (S)-1-(1-(6-(2-((4-cyanophenethyl)carbamoyl)azetidin-1-yl)-2-(trifluoromethyl)pyrimidin-4-yl)piperidin-4-yl)-4,12-dioxo-8-oxa-3,5,11,13-tetraazahexadecan-16-oic acid], the EC50 in the assay with Mouse STC-1 cells and on mouse TGR5 receptor was less than 0.1 µM throughout.

Regarding `N#Cc1ccc(CCNC(=O)[C@@H]2CCN2c2cc(N3CCC(CCNC(=O)NCCNC(=N)N)CC3)nc(C(F)(F)F)n2)cc1` [Compound 286, (S)-N-(4-cyanophenethyl)-1-(6-(4-(2-(3-(2-guanidinoethyl)-ureido)ethyl)piperidin-1-yl)-2-(trifluoromethyl)pyrimidin-4-yl)azetidine-2-carboxamide], the results for the EC50 with Mouse STC-1 cells and at mouse TGR5 receptor were 0.1 to 0.999 µM and less than 0.1 µM, respectively.

As to `N#Cc1ccc(CCNC(=O)[C@@H]2CCN2c2cc(N3CCC(CCCC(=O)NCCNC(=N)N)CC3)nc(C(F)(F)F)n2)cc1` [Compound 282, (S)—N-(4-cyanophenethyl)-1-(6-(4-(4-((2-guanidinoethyl)amino)-4-oxobutyl)piperidin-1-yl)-2-(trifluoromethyl)pyrimidin-4-yl)azetidine-2-carboxamide], the EC50 was 0.1 to 0.999 µM with Mouse STC-1 cells and less than 0.1 µM at mouse TGR5 receptor.

For `O=C(O)CCCC1CCN(c2cc(N3CCC[C@H]3C(=O)NCCc3ccc(C(F)(F)F)cc3)nc(C(F)(F)F)n2)CC1` [Compound 9], the EC50 with Mouse STC-1 cells and at mouse TGR5 receptor was less than 0.1 µM each time.

Regarding `N#Cc1ccc(CCNC(=O)[C@@H]2CCCN2c2cc(N3CCC(CCCC(=O)NCCS(=O)(=O)O)CC3)nc(C(F)(F)F)n2)cc1` [Compound 61, (S)-2-(4-(1-(6-(2-((4-cyanophenethyl)carbamoyl)pyrrolidin-1-yl)-2-(trifluoromethyl)pyrimidin-4-yl)-piperidin-4-yl)butanamido)ethanesulfonic acid], the 50% effective concentration (EC50) in the assay on Mouse STC-1 cells and at mouse TGR5 receptor was less than 0.1 µM throughout.

With `N#Cc1ccc(CCNC(=O)[C@@H]2CCCN2c2cc(N3CCC(CCNC(=O)[C@@H](N)CS(=O)(=O)O)CC3)nc(C(F)(F)F)n2)cc1` [Compound 123, (R)-2-amino-3-((2-(1-(6-((S)-2-((4-cyanophenethyl)carbamoyl)pyrrolidin-1-yl)-2-(trifluoromethyl)pyrimidin-4-yl)piperidin-4-yl)ethyl)amino)-3-oxopropane-1-sulfonic acid], the EC50 in the assay on Mouse STC-1 cells and on mouse TGR5 receptor was less than 0.1 µM each time.

As for `N#Cc1ccc(CCNC(=O)[C@@H]2CCN2c2cc(N3CCC(CCNc4c(NCC(=O)O)c(=O)c4=O)CC3)nc(C(F)(F)F)n2)cc1` [Compound 302, (S)-2-((2-((2-(1-(6-(2-((4-cyanophenethyl)carbamoyl)azetidin-1-yl)-2-(trifluoromethyl)pyrimidin-4-yl)piperidin-4-yl)ethyl)amino)-3,4-dioxocyclobut-1-en-1-yl)amino)acetic acid], the half-maximal effective concentration (EC50) with Mouse STC-1 cells and at mouse TGR5 receptor was less than 0.1 µM each time.

For the compound `N#C/N=C(\NCCC(=O)O)NCCC1CCN(c2cc(N3CC[C@H]3C(=O)NCCc3ccc(C#N)cc3)nc(C(F)(F)F)n2)CC1` [Compound 351, (S,Z)-3-(2-cyano-3-(2-(1-(6-(2-((4-cyanophenethyl)carbamoyl)azetidin-1-yl)-2-(trifluoromethyl)pyrimidin-4-yl)piperidin-4-yl)ethyl)guanidino)propanoic acid], the EC50 in the assay with Mouse STC-1 cells and on mouse TGR5 receptor was less than 0.1 µM throughout.

As for `N#Cc1ccc(CCNC(=O)[C@@H]2CCN2c2cc(N3CCC(CCNC(=O)NCCS(N)(=O)=O)CC3)nc(C(F)(F)F)n2)cc1` [Compound 269, (S)—N-(4-cyanophenethyl)-1-(6-(4-(2-(3-(2-sulfamoylethyl)ureido)ethyl)piperidin-1-yl)-2-(trifluoromethyl)pyrimidin-4-yl)azetidine-2-carboxamide], the EC50 with Mouse STC-1 cells and at mouse TGR5 receptor was less than 0.1 µM throughout.

As for `N#Cc1ccc(CCNC(=O)[C@@H]2CCCN2c2cc(N3CCC(CCCC(=O)NCCC(=O)O)CC3)nc(C(F)(F)F)n2)cc1` [Compound 104, (S)-3-(4-(1-(6-(2-((4-cyanophenethyl)carbamoyl)pyrrolidin-1-yl)-2-(trifluoromethyl)pyrimidin-4-yl)-piperidin-4-yl)butanamido)-propanoic acid], the EC50 in the assay with Mouse STC-1 cells was 0.1 to 0.999 µM; at mouse TGR5 receptor, less than 0.1 µM.
